Data reported in patent US20250151729A1, “METHOD FOR REDUCING OR PREVENTING EFFECT OF SALT STRESS ON PLANT” (NIPPON SODA CO., LTD, priority 2022, published 2025).

Assays:
Assay type in all cases: in vivo
[1] = system: edible corn (Idaho Sweet 88); experiment: Test Example 5: corn pot test, 8 g/L sodium chloride solution poured over soil; details: 8 g/L NaCl
Experimental: (§1) (1) Example 5a: 8 g/L sodium chloride solution and chemical solution 5a were poured.
(§2) (2) Comparative Example 5a: 8 g/L sodium chloride solution and water were poured.
(§3) (3) Comparative Example 5b: Water was poured.
(§4) Plastic pots were filled with Kannami soil, and seeds of edible corn (Idaho Sweet 88) and soybean (Enrei) were sowed in their respective pots, three seeds for each pot (3 cm in depth). Each test was repeated three times. The plants were grown with subirrigation in a greenhouse.
(§5) A flowable agent containing 5% of the compound of formula (I)-1 was diluted 103 times with water to prepare chemical solution 5, and 17.3 mL of this chemical solution was poured for each pot on the 8th day after sowing (only Example 5a).
(§6) After the chemical treatment, with a pot without holes placed at the bottom, tap water was misted from above on weekends and holidays, and 50 mL of tap water was poured over the soil for each pot every weekday.
(§7) From the 11th day after sowing, 8 g/L sodium chloride solution was poured over the soil, 50 mL for each pot, every day (only Example 5a and Comparative Example 5a).
(§8) On the 19th day after sowing, the largest root length (cm), the plant height (cm), and the top and root dry weights (g) were measured.

[2] = system: wheat (Norin 61); experiment: Test Example 1: wheat seeds on filter paper under 125 mM sodium chloride salt stress; details: for Foliage Length / Root Length / Root Number of roots / Foliage Recovery percentage / Root Recovery percentage: after 6 days; for Foliage Length / Root Length / Root Number of roots: average of six seeds; for Foliage Recovery percentage / Root Recovery percentage: relative to Comparative Examples 1a and 1b
Experimental: A flowable agent containing 10% of the compound of formula (I)-1 was diluted 103 times and 104 times with water to obtain chemical solution 1a and chemical solution 1b, respectively.
(§9) Eight layers of filter paper were placed at the center of a laboratory dish, and seeds (six seeds) of wheat (Norin 61) were placed on the filter paper. Four of these were prepared.
(1) 125 mM sodium chloride and 10 mL of chemical solution 1a were poured into the laboratory dish (Example 1a).
(2) 125 mM sodium chloride and 10 mL of chemical solution 1b were poured into the laboratory dish (Example 1b).
(3) 125 mM sodium chloride and 10 mL of water were poured into the laboratory dish (Comparative Example 1a).
(4) 10 mL of water was poured into the laboratory dish (Comparative Example 1b).
Each laboratory dish was placed in a growth chamber set at 25° C. and light/dark=16/8. After 6 days, the number of roots, the root length, and the foliage length were measured for six seeds in each of (1) to (4).
The recovery percentage was calculated from the following equation:
[formula] • X: Chemical treatment, sodium chloride applied • Y: No chemical treatment, sodium chloride applied • Z: No chemical treatment, no sodium chloride treatment

[3] = system: soybean (Enrei); experiment: Test Example 5: soybean pot test, 8 g/L sodium chloride solution poured over soil; details: 8 g/L NaCl
Experimental: as §1, §2, §3, §4, §5, §6, §7, §8

[4] = system: wheat (Norin 61); experiment: Test Example 3: wheat seeds on filter paper under 125 mM sodium chloride salt stress; details: for Foliage Length / Root Length / Root Number of roots / Foliage Recovery percentage / Root Recovery percentage: after 4 days; for Foliage Recovery percentage / Root Recovery percentage: relative to Comparative Examples 3a and 3b
Experimental: A flowable agent containing 10% of the compound of formula (I)-1 was diluted 105 times and 107 times with water to obtain chemical solution 3a and chemical solution 3b, respectively.
as §9
(1) 125 mM sodium chloride and 10 mL of chemical solution 2a were poured into the laboratory dish (Example 3a).
(2) 125 mM sodium chloride and 10 mL of chemical solution 2b were poured into the laboratory dish (Example 3b).
(3) 125 mM sodium chloride and 10 ml of water were poured into the laboratory dish (Comparative Example 3a).
(4) 10 mL of water was poured into the laboratory dish (Comparative Example 3b).
Each laboratory dish was placed in a growth chamber set at 25° C. and light/dark=16/8. After 4 days, the number of roots, the root length, and the foliage length were measured for five seeds in each of (1) to (4). The recovery percentage was calculated in the same manner as in Test Example 1.

[5] = system: wheat (variety: Kitahonami); experiment: Test Example 6: wheat pot test, 8 g/L sodium chloride solution poured over soil; details: 8 g/L NaCl
Experimental: (1) Example 6a: 8 g/L sodium chloride solution and chemical solution 6a were poured.
(2) Comparative Example 6a: 8 g/L sodium chloride solution and water were poured.
(3) Comparative Example 6b: Water was poured.
Plastic pots were filled with Kannami soil, and five seeds of wheat (variety: Kitahonami) were sowed at the center of each pot (3 cm in depth). Each test was repeated three times.
After sowing, the pots were allowed to stand in a growth chamber (20° C. dark room) for 4 days and then moved to a greenhouse.
A flowable agent containing 5% of a compound of formula (I)-1 was diluted 103 times with water to prepare chemical solution 6, and 17.3 mL of this chemical solution was poured for each pot on the 7th day after sowing (only Example 6a).
From the 10th day after sowing, 8 g/L sodium chloride solution was poured over the soil, 30 mL for each pot, once a day (only Example 6a and Comparative Example 6a).
On the 17th day after sowing, the largest root length (cm), the number of rooted individuals, the plant height (cm), and the top and root dry weights (g) were measured.

[6] = system: rice (Koshihikari: Oryza sativa); experiment: Test Example 4: rice in Wagner pots under submerged conditions with sodium chloride aqueous solution
Experimental: In the middle of June, Arakidatsuchi (2 mm sieved, Akagi Engei) was placed in a Wagner pot (1/5000 a), and five grains of dried seed rice (Koshihikari: Oryza sativa) were sown at the center of the Wagner pot at a sowing depth of 3 mm to 5 mm, thus starting raising by direct seeding under submerged conditions. Individuals except for one well-grown individual from which 2 to 3 tillers appeared were cut for thinning with scissors on the 28th day after sowing. Ten pots of these were prepared.
Midseason drainage was performed on the 47th to 49th day after sowing. A flowable agent containing 10% of the compound of formula (I)-1 was diluted 103 times with water to obtain chemical solution 4. […]
The number of withered, dead stems, the number of rolled leaves, the number of crown roots, the amount of water decrease, and the length of leaf tip blight were measured on the 68th day after sowing. […]
The plant height, the number of stems, the culm length, the number of ears, the ear length, the number of whitened unhulled rice grains, the leaf color of flag leaves, and the numbers of flag leaf blights and withered, dead leaves were measured in the heading period or after. […]
The culm length, the number of ears, the ear length, the number of whitened unhulled rice grains, the leaf color of flag leaves, and the numbers of flag leaf blights and withered, dead leaves were measured on the 106th day after sowing. […]

[7] = system: corn (P2307); experiment: Test Example 2: corn seeds on filter paper under 125 mM sodium chloride salt stress
Experimental: A flowable agent containing 10% of the compound of formula (I)-1 was diluted 106 times with water to obtain chemical solution 2a.
Eight layers of filter paper were placed at the center of a laboratory dish, and seeds (five seeds) of corn (P2307) were placed on the filter paper. Four of these were prepared.
(1) 125 mM sodium chloride and 10 mL of chemical solution 2a were poured into the laboratory dish (Example 2a).
(2) 125 mM sodium chloride and 10 ml of water were poured into the laboratory dish (Comparative Example 2a).
(3) 10 mL of water was poured into the laboratory dish (Comparative Example 2b).
Each laboratory dish was placed in a growth chamber set at 25° C. and light/dark=16/8. After 4 days, the number of roots, the root length, and the foliage length were measured for five seeds in each of (1) to (3). The recovery percentage was calculated in the same manner as in Test Example 1.

[8] = 5% flowable diluted 103 times, 19th day after sowing
[9] = 17.3 mL per pot of 5% flowable diluted 103 times on 8th day, measured 19th day after sowing
[10] = vs salt stress without the compound
[11] = 125 mM sodium chloride + 10 mL chemical solution 1a (10% flowable diluted 103 times)
[12] = 125 mM sodium chloride + 10 mL chemical solution 1b (10% flowable diluted 104 times)
[13] = 125 mM sodium chloride + chemical solution 1a (diluted 103 times)
[14] = 125 mM sodium chloride + chemical solution 1b (diluted 104 times)
[15] = 125 mM sodium chloride salt stress, vs salt stress without the compound
[16] = 125 mM sodium chloride + 10 mL chemical solution 3a (10% flowable diluted 105 times; b105 prints chemical solution 2a)
[17] = 125 mM sodium chloride + 10 mL chemical solution 3b (10% flowable diluted 107 times; b106 prints chemical solution 2b)
[18] = 125 mM sodium chloride + chemical solution 3a (diluted 105 times)
[19] = 125 mM sodium chloride + chemical solution 3b (diluted 107 times)
[20] = 5% flowable diluted 103 times, 17th day after sowing
[21] = 17.3 mL per pot of 5% flowable diluted 103 times on 7th day, measured 17th day after sowing
[22] = 125 mM sodium chloride + 10 mL chemical solution 2a (10% flowable diluted 106 times), after 4 days, average of five seeds
[23] = 125 mM sodium chloride + chemical solution 2a (diluted 106 times), after 4 days, relative to Comparative Examples 2a and 2b

Cn1nnnc1C(=NOCc1cccc(NC(=O)OC(C)(C)C)n1)c1ccccc1 [compound of formula (I)-1]
Plant height Corn A: number relative to 100 of Comparative Example 5b [1, 8]: 91 | Root dry weight Corn A: number relative to 100 of Comparative Example 5b [1, 8]: 90 | Root length Corn A: number relative to 100 of Comparative Example 5b [1, 8]: 96 | Top dry weight Corn A: number relative to 100 of Comparative Example 5b [1, 8]: 83 | Plant height Corn [1, 9]: 37.0 cm | Root dry weight Corn [1, 9]: 0.10 g | Root length Corn [1, 9]: 17.3 cm | Top dry weight Corn [1, 9]: 0.40 g | Corn values compared with Comparative Example 5a (in words) [1, 10]: better values | Foliage Length [2, 11]: 68.8 mm | Root Length [2, 11]: 49.6 mm | Root Number of roots [2, 11]: 5.6 | Foliage Length [2, 12]: 64.2 mm | Root Length [2, 12]: 50.2 mm | Root Number of roots [2, 12]: 5.2 | Foliage Recovery percentage [2, 13]: 31.0% | Root Recovery percentage [2, 13]: 8.1% | Foliage Recovery percentage [2, 14]: 15.8% | Root Recovery percentage [2, 14]: 9.1% | Recovery compared with Comparative Example 1a (in words) [2, 15]: more recovery | Plant height Soybean A: number relative to 100 of Comparative Example 5b [3, 8]: 101 | Root dry weight Soybean A: number relative to 100 of Comparative Example 5b [3, 8]: 72 | Root length Soybean A: number relative to 100 of Comparative Example 5b [3, 8]: 105 | Top dry weight Soybean A: number relative to 100 of Comparative Example 5b [3, 8]: 91 | Plant height Soybean [3, 9]: 48.3 cm | Root dry weight Soybean [3, 9]: 0.15 g | Root length Soybean [3, 9]: 14.3 cm | Top dry weight Soybean [3, 9]: 0.72 g | Soybean values compared with Comparative Example 5a (in words) [3, 10]: better values | Foliage Length [4, 16]: 23.3 mm | Root Length [4, 16]: 30.8 mm | Root Number of roots [4, 16]: 4.0 | Foliage Length [4, 17]: 25.0 mm | Root Length [4, 17]: 29.0 mm | Root Number of roots [4, 17]: 4.0 | Foliage Recovery percentage [4, 18]: 0.0% | Root Recovery percentage [4, 18]: 41.8% | Foliage Recovery percentage [4, 19]: 0.0% | Root Recovery percentage [4, 19]: 19.0% | Recovery in the root compared with Comparative Example 3a (in words) [4, 15]: more recovery in the root | Largest root length Wheat A: number relative to 100 of Comparative Example 6b [5, 20]: 100 | Number of rooted individuals Wheat A: number relative to 100 of Comparative Example 6b [5, 20]: 104 | Plant height Wheat A: number relative to 100 of Comparative Example 6b [5, 20]: 98 | Root dry weight Wheat A: number relative to 100 of Comparative Example 6b [5, 20]: 94 | Top dry weight Wheat A: number relative to 100 of Comparative Example 6b [5, 20]: 96 | Largest root length Wheat [5, 21]: 18.3 cm | Number of rooted individuals Wheat [5, 21]: 8.0 Number | Plant height Wheat [5, 21]: 29.3 cm | Root dry weight Wheat [5, 21]: 0.034 g | Top dry weight Wheat [5, 21]: 0.059 g | Number of rooted individuals, plant height and root dry weight compared with Comparative Example 6a (in words) [5, 10]: better | Growth and yield measurements, effect of chemical treatment (in words) ([6]; 2 g/L sodium chloride aqueous solution, 28 g ai per 10 a under submerged conditions): same effect was observed | Growth and yield measurements compared with Comparative Example 4a (in words) ([6]; 10 g/L sodium chloride aqueous solution, chemical solution 4, 56 mL per pot, 280 g ai per 10 a, on 50th day after sowing, FIGS. 1 to 14): better values | Foliage Length [7, 22]: 17.2 mm | Root Length [7, 22]: 38.6 mm | Root Number of roots [7, 22]: 5.2 | Foliage Recovery percentage [7, 23]: 28.3% | Root Recovery percentage [7, 23]: 33.8% | Recovery compared with Comparative Example 2a (in words) [7, 15]: more recovery
